Assay [1] has as its target AKR1C2 (Homo sapiens (Human), UniProt P52895). Nature of the assay: Inhibition of S-tetralol oxidation, AKR1C2. In kind it is biochemical. The note with it: for IC50: S-tetralol substrate at Km.
Assay [2] has as its target AKR1C1 (Homo sapiens (Human), UniProt Q04828). The experiment in a line: Inhibition of S-tetralol oxidation, AKR1C1. In kind it is biochemical. The note with it: for IC50: S-tetralol substrate at Km. An excerpt: Inhibitors were initially screened for an ability to block the NADP+ dependent oxidation of the artificial substrate S-tetralol catalyzed by AKR1C3. S-tetralol was used since it is also a substrate of the highly related AKR1C1 and AKR1C2 enzymes.
Initially, the ratios of IC50 values for AKR1C2 versus AKR1C3 were compared. High ratios were indicative of high selectivity for AKR1C3.
The latter assay is used to determine whether lead compounds act as AR agonists or block 5α-DHT reporter gene activity by acting as androgen receptor antagonists.

The target of assay [3] is homogeneous recombinant AKR1C3 (Homo sapiens (Human), UniProt P42330). Nature of the assay: Inhibition of NADP+ dependent oxidation of S-tetralol catalyzed by AKR1C3. The note with it: S-tetralol substrate at Km. In kind it is biochemical.
For assay [4], the target named is AKR1C4 (Homo sapiens (Human), UniProt P17516). Nature of the assay: Inhibition of S-tetralol oxidation, AKR1C4. The format is biochemical.
The subject of assay [5] is androgen receptor (AR). Nature of the assay: HeLa-cell androgen receptor (AR) luciferase reporter gene assay driven by DHT. The format is cell-based. The note with it: for AR agonism or antagonism (DHT stimulation of the AR): AR luciferase reporter gene assay; for androgen receptor antagonism: luciferase AR reporter gene assay driven by DHT, FIG. 11. An excerpt: Secondary screens involve one or more of: (a) a full-screen against all nine human recombinant AKR enzymes to ensure there are no-intended off-target effects; (b) a screen against COX-1 and COX-2 to reaffirm that compounds will not act as NSAIDs; and (c) a HeLa-cell androgen receptor (AR) reporter gene assay. The latter assay is used to determine whether lead compounds act as AR agonists or block 5α-DHT reporter gene activity by acting as androgen receptor antagonists.
Background: A reporter such as luciferase makes a cellular process visible.

The test system of assay [6] is LNCaP cells stably transfected with AKR1C3. Nature of the assay: Conversion of Δ4-androstene-3,17-dione to testosterone in LNCaP-AKR1C3 transfected cells. The note with it: 30 μM. In kind it is cell-based, human. The source says: Tertiary screens involve one or more of (d) expanded reporter gene assays to determine whether compounds act as agonists or antagonists of other steroid hormone receptors; (e) inhibition of the conversion of Δ^4-androstene-3,17-dione to testosterone in androgen receptor dependent prostate cancer cells (including, but not limited to LNCaP; available from the American type Culture Collection (ATCC), Manassas, Va., United States of America) stably transfected with AKR1C3; and (f) inhibition of growth of castrate-resistant prostate cancer cells in a murine xenograft model.

The subject of assay [7] is COX-1. Nature of the assay: Screen against COX-1. The format is biochemical. The note with it: at concentrations greater than 100 μM.
Assay [8] concerns VCaP cells. Nature of the assay: Δ4-androstene-3,17-dione driven expression of PSA in VCaP cells. In kind it is cell-based, human.
Assay [9] deals with VCaP cells in a murine xenograft model. As to conditions: Cai et al., 2011; cited from earlier work.

“Also recorded” adds a separate entry of the source.

homogeneous recombinant AKR1C3, sequence (P42330 whole entry): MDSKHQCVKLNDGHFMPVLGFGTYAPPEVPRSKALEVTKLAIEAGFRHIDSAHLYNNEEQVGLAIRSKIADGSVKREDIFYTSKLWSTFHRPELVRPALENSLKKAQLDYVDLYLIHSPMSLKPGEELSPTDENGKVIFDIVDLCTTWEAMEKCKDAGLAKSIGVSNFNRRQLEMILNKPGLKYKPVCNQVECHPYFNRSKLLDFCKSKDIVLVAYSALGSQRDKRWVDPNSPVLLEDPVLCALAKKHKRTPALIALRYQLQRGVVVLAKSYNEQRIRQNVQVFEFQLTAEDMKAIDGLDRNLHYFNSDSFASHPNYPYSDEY
AKR1C1, sequence (Q04828 whole entry): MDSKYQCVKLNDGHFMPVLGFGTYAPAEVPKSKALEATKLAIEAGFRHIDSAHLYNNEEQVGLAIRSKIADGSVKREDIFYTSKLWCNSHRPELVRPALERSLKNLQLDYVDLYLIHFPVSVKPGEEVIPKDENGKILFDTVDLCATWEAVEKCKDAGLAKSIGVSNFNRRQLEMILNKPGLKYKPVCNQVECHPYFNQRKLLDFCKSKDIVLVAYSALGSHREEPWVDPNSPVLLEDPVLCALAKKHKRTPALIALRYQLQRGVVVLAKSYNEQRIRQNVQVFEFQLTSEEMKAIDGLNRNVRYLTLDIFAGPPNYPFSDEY
AKR1C2, sequence (P52895 whole entry): as the sequence (Q04828 whole entry) above, with T38V, R47H, L54V, C87S, V151M, R170H, Q172L counted along it
AKR1C4, sequence (P17516 whole entry): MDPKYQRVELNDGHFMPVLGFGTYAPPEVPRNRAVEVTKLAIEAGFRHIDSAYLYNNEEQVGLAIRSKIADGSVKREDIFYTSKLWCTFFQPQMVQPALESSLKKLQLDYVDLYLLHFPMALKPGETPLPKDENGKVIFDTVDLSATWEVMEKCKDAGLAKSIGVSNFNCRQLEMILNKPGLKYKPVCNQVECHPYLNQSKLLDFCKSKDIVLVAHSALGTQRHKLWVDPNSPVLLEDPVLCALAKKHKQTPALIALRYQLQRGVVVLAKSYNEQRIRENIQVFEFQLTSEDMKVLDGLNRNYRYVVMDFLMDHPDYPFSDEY

Regarding `COc1ccc2c(c1)c(C)c(CCC(=O)O)n2C(=O)c1ccc(Cl)cc1` [drawing 37], the IC50 in assay [1] is 14.5 µM; in assay [2], 17.7 µM.

Consider `CCc1c(CCC(=O)O)n(C(=O)c2ccc(Cl)cc2)c2ccc(OC)cc12`, for which the IC50 in assay [3] came to 0.09 µM; in [1], 49.6 µM; in assay [2], 30.7 µM.

In the case of `COc1ccc2c(c1)c(CC(=O)NS(=O)(=O)C(F)(F)F)c(C)n2C(=O)c1ccc(Cl)cc1`, the IC50 is 0.74 µM in [3] and 81 µM in assay [1]. Further, in assay [4] (number in parenthesis), the “fold selectivity for AKR1C3 over AKR1C4” value was more than 135 fold. For the same compound, in assay [1] (number in parenthesis, ratio of IC50 values), the “fold selectivity for AKR1C3 over AKR1C2” value stood at 108 fold. Besides, in assay [2] (number in parenthesis), the “fold selectivity for AKR1C3 over AKR1C1” value was more than 135 fold.

Take `COc1ccc2c(c1)c1c(n2C(=O)c2ccc(Cl)cc2)CCC(C(=O)O)C1` (stereo not shown): it took 3.15 µM to reach half-maximal inhibition in assay [4] (S-tetralol substrate at Km) (IC50).

For the compound `COc1ccc2c(c1)c(CC(=O)O)c(C)n2C(=O)c1ccc(C)cc1`, the IC50 in assay [3] came to 0.16 µM.

Regarding `COc1ccc2c(c1)c(CC(=O)O)c(C)n2C(=O)c1ccc(C(F)(F)F)cc1`, in assay [1], inhibition was half-maximal at 35.7 µM (IC50).

With `COc1ccc2c(c1)c(CC(=O)NS(=O)(=O)C(F)(F)F)cn2C(=O)c1ccc(Cl)cc1` [Compound 1], in assay [5], the “AR agonism or antagonism (DHT stimulation of the AR)” value (“AR agonism or antagonism” for short) was “did not act as AR agonists or antagonists” and the androgen receptor antagonism entry was “lack of androgen receptor antagonism”.

As to `COc1ccc2c(c1)c(C)c(CCC(=O)NS(C)(=O)=O)n2C(=O)c1ccc(Cl)cc1` [drawing 38], the concentration for half-maximal inhibition (IC50) in assay [3] amounted to 0.34 µM; in assay [1], 93 µM; in assay [2], 100 µM.

Take `COc1ccc2c(c1)c(C)c(CCC(=O)NS(C)(=O)=O)n2C(=O)c1ccc(Cl)cc1` [Compound 3]: the “conversion of Δ4-androstene-3,17-dione to testosterone” value in assay [6] is given as “completely blocked”. Also, in assay [7], the COX-1 inhibition result was “did not inhibit COX-1”. Besides, in assay [5], the “AR agonism or antagonism” value is reported as “did not act as AR agonists or antagonists” and the androgen receptor antagonism result is given as “lack of androgen receptor antagonism”.

On to `COc1ccc2c(c1)c(CC(=O)O)c(C)n2C(=O)c1ccc(CCl)cc1`, for which the IC50 was 0.12 µM in assay [3], 40.7 µM in assay [1] and 100 µM in [2].

Consider `COc1ccc2c(c1)c(CC(=O)O)c(C)n2C(=O)c1ccc(Cl)cc1` [indomethacin], for which, in assay [8], the “Δ4-androstene-3,17-dione driven expression of PSA” value is given as “blocked; also recorded: inhibition”. In addition, the “AR dependent gene transcription and tumor growth in xenograft” value in [9] is “block AR dependent gene transcription and cell growth and proliferation of the tumor”.

With `COc1ccc2c(c1)c(C)c(CCC(=O)O)n2C(=O)c1ccc(Cl)cc1` [Compound 2], in assay [6], the “conversion of Δ4-androstene-3,17-dione to testosterone” value is “completely blocked”. Also, the COX-1 inhibition result in assay [7] was “did not inhibit COX-1”. In assay [5], the “AR agonism or antagonism” value is recorded as “did not act as AR agonists or antagonists” and the androgen receptor antagonism result is given as “lack of androgen receptor antagonism”.

For orientation: IC50 means the point on the concentration scale where inhibition reaches its midpoint.

The values are drawn from patent US9346803B2 (Vanderbilt University, priority 2011, dated 2016).
